# Legend:
# alveolar macrophages = experiment: Timelapse cinemicrography of macrophage motility; type: cell-based, rat; details: macrophages from bleomycin treated animals, 4 days
# Procedure: Freshly isolated cells from bronchoalveolar lavage of saline or bleomycin-treated animals were monitored for their motility using a Nikon TE-300 inverted microscope (Nikon Corp., Tokyo, Japan) to which a video camera (Hamamatsu CCD, Inc., Hamamatsu City, Japan) was attached. Cell locomotion of at least 20 cells per animal was determined using Metamorph (Universal Imaging Corp., Downingtown, Pa.). Cells were plated and maintained at 37° C. and followed for 2 hours with mean velocities calculated every 10 minutes. The effect of anti-RHAMM antibody was examined by adding 5 μg/ml of antibody per plate per treatment 15 minutes before measurement of motility. Non-immune IgG was used as a control. Each experiment was repeated at least three times.
# male Sprague-Dawley rats = experiment: Intratracheal bleomycin lung injury: macrophage accumulation (ED1) and lung architecture; type: in vivo, rat
# Text: The Institutional Animal Care and Utilization Committees at both The Childrenls Hospital of Philadelphia and The University of Pennsylvania School of Medicine approved all animal care procedures. Six-week old (200-250 grams) male Sprague-Dawley rats (Charles River Breeding Laboratories, N. Wilmington, Mass.) were housed in the Animal Care Facility of The Children's Hospital of Philadelphia under standard conditions with free access to food and water. Animals were anesthetized with ketamine:xylazine:atropine (16:8:0.01 mg/kg), and the trachea was visualized through a vertical incision in the neck. Using an insulin syringe, 250 μl of either LPS-free saline or 8 units/kg bleomycin sulfate (Bristol Myers Squibb, Princeton, N.J.) in 250 μl of saline was injected into the trachea. The incision was closed with surgical clips, and animals were immediately injected intraperitoneally with either 0.5 mg of anti-RHAMM antibody (R36) or non-immune IgG. Antibody treatment was continued with daily injections of 0.5 mg of either R36 or IgG for either three or six days. At least three animals were examined for each condition, including one set that remained unmanipulated throughout.
# Animals were sacrificed on days 4 or 7 after injury. Bronchoalveolar lavage (BAL) was obtained (36 ml/kg, total lung capacity) and immediately centrifuged at 500 g for 10 minutes to remove all cells and cellular debris. Approximately 80-90% of lavage was routinely recovered. The cellular pellet and the supernatant were separated and frozen at −70° C. until further analysis. […]
# Macrophage accumulation was quantified by immunofluorescent staining with the rat macrophage specific marker ED1 (Serotec, Raleigh, N.C.). Endogenous fluorescence was blocked with separate exposure to sodium borohydrate (1 g/10 ml PBS, 3 minutes×2) and 1 M glycine in PBS for 30 minutes. […] Three blinded, independent observers counted ED 1 positive cells per high power field to quantify macrophage accumulation in at least three lung sections from each animal. […]
substance,measurement,setting,value
bleomycin sulfate,increase in motility of alveolar macrophages,alveolar macrophages,5 fold
same,increase in macrophage number,"male Sprague-Dawley rats; IT bleomycin, ED1 positive cells per hpf",3 fold
same,macrophage number (ED1 positive cells),"male Sprague-Dawley rats; lung sections after IT bleomycin 8 units/kg, R36 0.5 mg ip daily",28.4±4.7 cells per hpf
same,lung architecture at seven days,"male Sprague-Dawley rats; tissue sections, bleomycin-injured rats",influx of inflammatory cells with thickening of alveolar septae and early fibrosis

# — patent publication US20070179085A1, “MODULATION OF RHAMM-CAVEOLIN/LIPID RAFT INTERACTIONS TO AFFECT DEVELOPMENT, RESPONSES TO TISSUE INJURY, ANGIOGENESIS, TUMORIGENESIS, METASTASIS AND GROWTH FACTOR/CYTOKINE RESPONSES” (priority 2005, published 2007)
